Entries after “also recorded” stand apart in the source; their conditions may differ. Ends that are not written are not given here.
What was measured:
PAI-1 [1] = molecular target: T1, PAI-1 (Homo sapiens, UniProt P05121); test: SDS-PAGE of peptide treated PAI-1 reacted with tPA, uPA or trypsin; format: biochemical; details: for formation of SDS stable PAI-1:enzyme complexes after peptide treatment: free PAI-1 preincubated with peptide, then tPA (uPA or trypsin); for conversion of PAI-1 to a substrate (cleaved PAI-1): peptide treated PAI-1 reacted with tPA
T1 construct: made in house; host or cells: E. coli (vector pET3a)
T1 sequence (P05121 24-402): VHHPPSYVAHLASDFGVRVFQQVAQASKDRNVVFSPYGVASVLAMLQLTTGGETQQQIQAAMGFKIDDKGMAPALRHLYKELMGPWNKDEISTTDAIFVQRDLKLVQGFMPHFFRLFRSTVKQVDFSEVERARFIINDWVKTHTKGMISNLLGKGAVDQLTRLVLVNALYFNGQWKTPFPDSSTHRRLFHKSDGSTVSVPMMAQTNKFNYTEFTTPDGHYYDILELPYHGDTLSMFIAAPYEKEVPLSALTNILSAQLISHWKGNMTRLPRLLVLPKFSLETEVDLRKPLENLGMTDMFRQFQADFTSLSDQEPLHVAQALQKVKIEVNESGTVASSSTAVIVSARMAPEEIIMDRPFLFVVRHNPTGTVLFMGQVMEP
Procedure: (§1) SDS-polyacrylamide gel electrophoresis (SDS-PAGE) under nonreducing conditions was carried out according to the method of Laemmli (Laemmli, 1970) on 10% gels. Native gel electrophoresis with 5% gels was carried out by omitting SDS and boiling from Laemmli's method. All gels were stained with Coomassie brilliant blue. Gels of PAI-peptide samples were scanned with an LKB Ultroscan XL Laser Densitometer to determine the relative amounts of peptide-annealed and latent PAI.
PAI that had been incubated with peptide was tested for inhibitory and substrate activity by incubating with tPA, uPA or trypsin. SDS-PAGE was then performed on the samples. Free PAI formed a complex band when incubated with any of the enzymes, as well as a faint band indicative of cleaved PAI. Because substoichiometric amounts of enzyme were used there was also a band for free PAI. When PAI was incubated with any of the peptides, the electrophoretic mobility was the same as that of free PAI after denaturing with SDS. When PAI was annealed to any of 8-mers, then allowed to react with tPA, uPA or trypsin, no PAI-enzyme complex band was seen.
SDS-PAGE was performed using a PhastSystem (Pharmacia), Upssala, Sweden, according to manufacturer's instructions. Gels were stained with Coomassie Brilliant Blue.
SDS-PAGE was performed to determine the effect of Thr-Val-Ala-Ser-Ser-Ser-Thr-Ala-Val-Ile-Val-Ser-Ala-Arg (SEQ ID NO: 1) on t-PA:PAI-1 complex formation in the presence and absence of vitronectin.

PAI-1 [2] = molecular target: T1, PAI-1; test: Thermal denaturation of peptide treated PAI-1; details: FIG. 4
From the text: Circular dichroism (CD) spectra analysis (Strandberg et al., 1991) indicated similar secondary structural components for the PAI-1 mutants, as well as active and latent wild-type PAI-1.
(Lawrence et al., 1994c). […] As expected, active PAI-1 was much less thermally stable than latent PAI-1 or elastase cleaved PAI-1 (FIG. 4). […] This is precisely the behavior expected for a serpin with a peptide intercalated into β-sheet A (Carrell et al., 1991; Schulze et al., 1990; Bjork et al., 1992). […] If the 14 residue peptide were intercalated into β-sheet A, then the added length of the peptide bound to sheet A would be expected to increase the stability not decrease it.
Upon completion of peptide annealing, the incubation solution contained a mixture of annealed PAI-peptide, latent PAI, and excess peptide. For circular dichroism (CD) spectra, melting curves, and mass spectroscopy determinations, the excess peptide was removed. This was done by loading the mixture on a heparin-sepharose column which had been equilibrated with 0.05M sodium phosphate, 0.15M NaCl, 1 mM EDTA, 0.01% TWEEN-80, pH 6.6. Washing the column with this buffer removed the excess peptide. The PAI-peptide and latent PAI were eluted together with 0.05M Sodium phosphate, 1M NaCl, 1 mM EDTA, 0.01% TWEEN-80, pH 6.6. […] The absorbance at 280 nm was used to determine the final protein concentration. […]

PAI-1 [3] = molecular target: T1, PAI-1; test: Plasminogen activator inhibitor 1 activity assay (t-PA, Spectrozyme t-PA); format: biochemical; details: for PAI-1 T1/2: PAI-1 0.7 μM, peptide 55 μM, 98±18 min without peptide
Procedure: (§2) PAI-1 (0.7 μM) was incubated at 37° C. with either P1-P14 peptide or control peptide (55 μM) in 0.1M HEPES, 0.1M NACl, 0.1% PEG (MW 8000), pH 7.4 (assay buffer). At timed intervals 0-110 minutes), 5 μL of the PAI-1:peptide mixture was added to 96 well microtiter plates containing 45 μL of t-PA (0.03 μM in assay buffer), then incubated for 30 minutes at 37° C. Spectrozyme t-PA (final concentration of 150 μM) was added to yield a final reaction volume of 70 μL, and 30 minutes later the absorbance at 405 nm was determined in a THERMO-max (Molecular Devices, Palo Alto, Calif.) microplate reader. 100% PAI-1 activity was defined as activity observed at time zero, while 0% PAI-1 activity was defined as that observed in the absence of PAI-1. A standard t-PA activity curve, derived from absorbance values of varying concentrations of t-PA incubated in the absence of PAI-1, was used to determine PAI-1 activity.

PAI-1 [4] = molecular target: T1, PAI-1; test: Native gel electrophoresis of PAI incubated with peptide; format: binding
Procedure: as §1
Four of the five peptides have a net negative charge due to glutamic acid residues and the free carboxy terminus (FIG. 1). The wtPAI 8-mer has a net -1 charge (the carboxy terminus). The V→E PAI 8-mer (SEQ ID NO:3) and consensus 8-mer (SEQ ID NO:4) each have a -2 charge (the glutamic acid residue and the carboxyl group). […] The PAI 14-mer (SEQ ID NO:1) is uncharged since it contains no glutamic acid and the arginine and carboxyl groups neutralize each other. Because of the negative charges of 4 of the peptides, native gels of PAI annealed to these peptides should show a band which migrates more quickly than the band representative of free active PAI. Similarly, if one of these peptides is incubated with PAI but fails to form a strong interaction with PAI, native gels should show a band which migrates identically to the free PAI.

vitronectin-bound PAI-1 = molecular target: T2, vitronectin-bound PAI-1 (Homo sapiens, UniProt P05121); test: PAI-1 activity assay in the presence of vitronectin; format: biochemical; details: for T1/2 of vitronectin-bound PAI-1: PAI-1 0.7 μM with vitronectin 1.7 μM, 37° C., 190±12 minutes without peptide
T2 construct: made in house; host or cells: E. coli (PAI-1); vitronectin a gift
T2 sequence (P05121 24-402): as above
Procedure: as §2
Since vitronectin binds and stabilizes the active conformation of PAI-1, the capacity of the Thr-Val-Ala-Ser-Ser-Ser-Thr-Ala-Val-Ile-Val-Ser-Ala-Arg (SEQ ID NO: 1) to inactivate vitronectin-bound PAI-1 was examined. PAI-1 (0.7 μM) was incubated with vitronectin (1.7 μM) for 30 minutes at 37° C., then Thr-Val-Ala-Ser -Ser-Ser-Thr-Ala-Val-Ile-Val-Ser-Ala-Arg (SEQ ID NO: 1) or control peptide (55 μM) was added, and the PAI-1 T1/2 was determined. In the presence of vitronectin, the T1/2 of PAI-1 was prolonged approximately 2-fold (98±18 to 190±12 minutes), similar to previous reports (Declerck et al. 1988).

formation of SDS stable PAI-1:enzyme complexes after peptide treatment (PAI-1 [1]; listed as P1-P14 peptide): inhibited complex formation
conversion of PAI-1 to a substrate (cleaved PAI-1) (PAI-1 [1]; listed as wt14-mer): did not behave as a substrate
thermal stability of peptide treated PAI-1 (PAI-1 [2]): very similar to latent PAI-1
PAI-1 T1/2 (PAI-1 [3]; 37° C.): approximately four
PAI-1 T1/2 (PAI-1 [3]; 37° C., listed as P1-P14 peptide): 4 ± 3 min
fold shortening of the PAI-1 T1/2 (PAI-1 [3]; 37° C., peptide 55 μM vs no peptide, listed as P1-P14 peptide): 24 fold
drop in t1/2, wt14-mer (37° C.) compared to wt8-mer (25° C.) (PAI-1 [3]; similar peptide concentrations (55 μM)): 100 fold
T1/2 of vitronectin-bound PAI-1 (vitronectin-bound PAI-1; peptide 55 μM): about 120 minutes
T1/2 of vitronectin-bound PAI-1 (vitronectin-bound PAI-1; peptide 55 μM, listed as P1-P14 peptide): only slowly inactivated
decrease of the half-life of PAI-1 in the presence of vitronectin (vitronectin-bound PAI-1; from approximately 190 to about 120 minutes): ~40%
fold decrease of the half-life of vitronectin-bound PAI-1 (vitronectin-bound PAI-1; peptide 55 μM): 1.6 fold
Substance: Ac-TVASSSTAVIVSAR [SEQ ID NO: 1, Thr-Val-Ala-Ser-Ser-Ser-Thr-Ala-Val-Ile-Val-Ser-Ala-Arg]
formation of SDS stable PAI-1:enzyme complexes after peptide treatment (PAI-1 [1]): no t-PA:PAI-1 complex formation was observed
PAI forms on SDS-PAGE (PAI-1 [1]; high peptide concentration): almost all of the PAI is in the latent conformation
PAI forms on SDS-PAGE (PAI-1 [1]; low peptide concentration): a significant substrate band formed along with the dominant latent PAI band
conversion of PAI-1 to a substrate (cleaved PAI-1) (PAI-1 [1]): did not convert PAI-1 to a substrate form; also recorded: substrate form of PAI-1 was not generated
electrophoretic mobility of active PAI incubated with peptide, native gel (PAI-1 [4]): a band at the same position as free active PAI
